Assay results as given in US11529299B2, “Hair care compositions comprising a 2-pyridinol-n-oxide material and an iron chelator” (The Procter & Gamble Company, priority 2017, dated 2022).

Experiments:
[1] = test system: M.Furfur 7892 cells; assay: Modified Fractional Inhibitory Concentration (MFIC), anti-Malassezia activity of combinations; type: cell-based, Malassezia furfur; conditions: titrated from 400 ppm; for MFIC: Table 3, chelator as Material #2 combined with the 2-pyridinol-N-oxide material at 1/2 its MIC; for Modified Fractional Inhibitory Concentration (MFIC): lowest concentration of Material #2 inhibiting growth with Material #1 (1-hydroxy-4-methyl-6-(2,4,4-trimethylpentyl)-2-pyridone monoethanolamine salt) at 1/2 its MIC, 33° C., 2 days
Description: A Modified Fractional Inhibitory Concentration (MFIC) is used to determine the combinatorial effects of two chemicals on anti-Malassezia activity in a tissue culture setting. […] I. […] Low levels of M.Furfur 7892 cells are inoculated into each well of a 96 well plate. • 3. […] Plates are incubated at 33° C. for 2 days. • 6. Optical densities (OD's) are then determined using a spectrophotometer. II. […] Inhibition of growth is determined if the culture optical density is less than or equal to ⅕ (20%) of the culture optical density of the untreated control • 2.

[2] = test system: Malassezia furfur; assay: Minimum inhibitory concentration (MIC), growth inhibition of Malassezia by culture optical density; type: cell-based; conditions: material alone, OD <= 20% of untreated control, 33° C., two days, M. Dixon medium pH 5.5, average of two replicates; for MIC: Malassezia furfur, 48 h
Description: To measure the growth inhibition properties of test materials against Malassezia, the following protocol is followed. The Malassezia furfur is cultured in 50 ml M. […] The pH is adjusted to 5.5 using 1N HCl. The media is autoclaved. Starting cultures are prepared by incubating freezer stocks with shaking at 33° C. The inoculum of Malassezia cells is 5.5×10^5 cfu/ml. Cells are incubated at 33° C. for two days. After the two day incubation optical density is read and background subtracted. MIC values are determined by averaging the results from two replicate experiments.

[3] = from NIST Standard Reference Database 46; cited from earlier work

Question: For `O=C(O)CN(CCN(CC(=O)O)CC(=O)O)CCN(CC(=O)O)CC(=O)O` [Diethylenetriaminepentaacetic acid], which MFIC [1] is on record?
Answer: 37 ppm

Question: What about the “Modified Fractional Inhibitory Concentration (MFIC)” value [1] of the same molecule?
Answer: 37 ppm

Question: And the “Minimum inhibitory concentration (MIC)” value [2]?
Answer: >400 ppm

Question: What about the “Log K1 (iron binding affinity)” value [3] of the same molecule?
Answer: 28

Question: Which MFIC [1] does the source give for `O=P(O)(O)CN(CCN(CP(=O)(O)O)CP(=O)(O)O)CCN(CP(=O)(O)O)CP(=O)(O)O` [Diethylenetriaminepentakis(methylenephosphonic acid)] here?
Answer: 50 ppm

Question: What about the “Modified Fractional Inhibitory Concentration (MFIC)” value [1] of the same molecule?
Answer: 50 ppm

Question: And the “Minimum inhibitory concentration (MIC)” value [2]?
Answer: >400 ppm

Question: And the “Log K1 (iron binding affinity)” value [3]?
Answer: 23

Question: With `Cc1cc(CC(C)CC(C)(C)C)n(O)c(=O)c1.NCCO` (centres unmarked) [1-hydroxy-4-methyl-6-(2,4,4-trimethylpentyl)-2-pyridone monoethanolamine salt] as the molecule, how does the MIC [2] read?
Answer: 25 µg/mL

Question: What does the source list for `CC(C(=O)O)N(CC(=O)O)CC(=O)O` (centres unmarked) [Methylglycine diacetic acid (MGDA), Methylglycine diacetic acid]?
Answer: MFIC [1]: >400 ppm; Log K1 (iron binding affinity) [3]: 16

Question: Which results are given for `O=C(O)CC(O)(CC(=O)O)C(=O)O` [Citric Acid]?
Answer: MFIC [1]: >400 ppm; Log K1 (iron binding affinity) [3]: 11

Question: Which MFIC [1] does the source give for `CC(=O)N(O)CCCCCNC(=O)CCC(=O)N(O)CCCCCNC(=O)CCC(=O)N(O)CCCCCN` [Desferrioxamine] here?
Answer: 5 ppm

Question: And the “Modified Fractional Inhibitory Concentration (MFIC)” value [1]?
Answer: 5 ppm

Question: What about the MIC [2] of the same molecule?
Answer: > 400 µg/mL

Question: What about the “Log K1 (iron binding affinity)” value [3] of the same molecule?
Answer: 31
